The record followed here is patent US20230115350A1 (Cedilla Therapeutics, Inc., priority 2021, published 2023).

Test [1] has as its target TEAD1 protein (YAP Binding Domain) (Homo sapiens, UniProt P28347). The test is described as follows: TEAD1 lipid pocket compound displacement assay (TR-FRET, Cy5-probe). The note with it: 60 minutes incubation at room temperature; TR-FRET 665 nm/620 nm; read-out: CDA IC50. The essentials:
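His-tagged TEAD1 YAP-binding domain pre-mixed with a Cy5-labelled lipid-pocket probe and Tb-anti-His antibody; compounds incubated with the complex 60 min at room temperature. TR-FRET read at 665/620 nm; IC50 from 4-parameter non-linear fit of probe displacement.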

For another test, the system named is NCI-H226. The test is described as follows: 72H TEAD Proliferation Assay (Cell Titer-Glo 2.0). It is filed as cell-based. The note with it: Homo sapiens, NCI-H226, 72 h, CTG 2.0, cell line not given. The method in brief:
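NF2-deficient mesothelioma cells were seeded at 500 cells per well on 10-point half-log compound dilutions in duplicate and grown 72 hours at 37° C, 5% CO2. Viable cells were read by CellTiter-Glo 2.0 luminescence, background- and time-zero-subtracted; GI50 came from nonlinear regression of dose-response curves.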

For another test, the target named is His-Tev-Avi-TEAD1 (Homo sapiens, UniProt P28347). Briefly: TEAD mass modification assay (iMS). The note with it: 50 μM compound, 1 hour, room temperature. The class given is binding. The protocol: Compound stock (10 mM) was diluted to 2.5 mM with DMSO and His-Tev-Avi-TEAD1 was diluted to 5 μM with Reaction Buffer (50 mM Tris pH 8.0, 150 mM NaCl, and 1 mM TCEP). Compound (1 μL) is incubated with 49 μL protein at room temperature for 1 hour (final compound concentration was 50 μM). The sample (20 μL) was shipped on dry ice to MSBioworks for iMS analysis.
Chain of His-Tev-Avi-TEAD1 (P28347 209-426 limits assumed): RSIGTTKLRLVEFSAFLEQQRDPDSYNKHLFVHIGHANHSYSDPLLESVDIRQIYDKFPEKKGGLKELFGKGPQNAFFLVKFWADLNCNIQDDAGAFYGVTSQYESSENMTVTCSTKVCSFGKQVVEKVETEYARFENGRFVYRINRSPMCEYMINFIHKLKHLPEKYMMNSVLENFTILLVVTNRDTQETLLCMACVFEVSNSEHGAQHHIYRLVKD
This assay confirms whether or not TEAD is covalently bound to a test compound (i.e., whether the protein's mass is modified). […] Compounds 80 (see FIG. 2), 89 (see FIG. 3), 73 (see FIG. 4), 53 (see FIG. 5), and 59 (see FIG. 6) were also tested in this fashion.

Where only a bound is given, the exact number is not on record here.

Chain of TEAD1 protein (YAP Binding Domain) (P28347 209-426 limits assumed): as above

For the molecule `C=CC(=O)Nc1ccc(OCc2cccc(Cl)c2Cl)c(F)c1` [Compound 80, N-(4-((2,3-dichlorobenzyl)oxy)-3-fluorophenyl)acrylamide], the IC50 in test [1] is at most 250 nM. The molecule also came in with a GI50 with NCI-H226 of 250 to 1000 nM. In addition, the “mass modification of TEAD1 (covalent binding)” value (“mass modification” for short) on His-Tev-Avi-TEAD1 is given as “mass modification of TEAD1”.

For the molecule `C=CC(=O)Nc1ccc(OCC2CCC(F)(F)CC2)c(F)c1` [Compound 58, N-(4-((4,4-difluorocyclohexyl)methoxy)-3-fluorophenyl)acrylamide], the half-inhibitory concentration (IC50) in test [1] is at most 250 nM. In the test with NCI-H226, this molecule showed a GI50 of 250 to 1000 nM. The “mass modification” value at His-Tev-Avi-TEAD1 was “mass shift indicates modification of TEAD1”. Besides, the “mass of the protein treated with compound” value on His-Tev-Avi-TEAD1 (untreated protein m/z 30,030.70) is given as 30,344.29 m/z.

`C=CC(=O)Nc1ccc(OCC2CCC(C(F)(F)F)CC2)c(F)c1` (centres unmarked) [Compound 59, N-(3-fluoro-4-((4-(trifluoromethyl)cyclohexyl)methoxy)phenyl)acrylamide]: the IC50 in test [1] is at most 250 nM. Further, in the test on NCI-H226, the GI50 was over 3000 nM. Moreover, the “mass modification” value at His-Tev-Avi-TEAD1 is listed as “mass modification of TEAD1”.

With `C=CC(=O)Nc1ccc(OCc2ccc(C(F)(F)F)nc2)c(F)c1` [Compound 73, N-(3-fluoro-4-((6-(trifluoromethyl)pyridin-3-yl)methoxy)phenyl)acrylamide], the IC50 in test [1] lay in the range of 500 to 2000 nM. This molecule gave a 50% growth inhibitory concentration (GI50) with NCI-H226 of 250 to 1000 nM. In addition, on His-Tev-Avi-TEAD1, the “mass modification” value is reported as “mass modification of TEAD1”.

In the case of `C=CC(=O)Nc1ccc(OCc2ccccc2Cl)c(F)c1` [Compound 53, N-(4-((2-chlorobenzyl)oxy)-3-fluorophenyl)acrylamide], in test [1], the IC50 is 500 to 2000 nM. The GI50 with NCI-H226 was 1000 to 3000 nM. The “mass modification” value on His-Tev-Avi-TEAD1 is given as “mass modification of TEAD1”.

Consider `C=CC(=O)Nc1ccc(OCC2CCCC(F)(F)C2)c(F)c1` (centres unmarked) [Compound 24, N-(4-((3,3-difluorocyclohexyl)methoxy)-3-fluorophenyl)acrylamide], for which the 50% inhibitory concentration (IC50) in test [1] was at most 250 nM. The same molecule came in with a GI50 in the test on NCI-H226 of at most 250 nM.

In the case of `C=CC(=O)Nc1ccc(Nc2ccc(F)cc2)c(F)c1` [Compound 108, N-(3-fluoro-4-((4-fluorophenyl)amino)phenyl)acrylamide], in test [1], the IC50 is over 2000 nM. Moreover, the GI50 in the test with NCI-H226 fell in the range of 250 to 1000 nM.
